Assay results taken from patent US20060069132A1, “Azolecarboxamide herbicides” (priority 2004, published 2006).

Legend:
barnyardgrass = assay: Test B pre-/postemergence herbicide test; format: in vivo, Echinochloa crus-galli
Outline: (§1)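 Pre: seeds sown, then sprayed. Post: 1–4-leaf plants (2–18 cm) sprayed at the same time. Paddy: flooded, treated at 2-leaf stage. Formulation: non-phytotoxic solvent with surfactant. Greenhouse 13–15 days; visual 0–100 score relative to controls.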

Surinam grass = assay: Test B pre-/postemergence herbicide test; format: in vivo, Urochloa decumbens
Outline: (§2)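 Plants compared with untreated controls 13–15 days post-treatment and given a visual 0–100 injury score. Applications: preemergence to seeds; postemergence at 1- to 4-leaf (2–18 cm); paddy species flooded, 2-leaf stage. Vehicle non-phytotoxic, surfactant included.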

cocklebur = assay: Test B pre-/postemergence herbicide test; format: in vivo, Xanthium strumarium
Outline: as §1

corn = assay: Test B pre-/postemergence herbicide test; format: in vivo, Zea mays; conditions: for Plant response rating (0 to 100 scale), Corn / Plant response rating, Corn: preemergence
Outline: as §2

large crabgrass = assay: Test B pre-/postemergence herbicide test; format: in vivo, Digitaria sanguinalis
Outline: as §2

giant foxtail = assay: Test B pre-/postemergence herbicide test; format: in vivo, Setaria faberi
Outline: as §2

morningglory = assay: Test B pre-/postemergence herbicide test; format: in vivo, Ipomoea coccinea
Outline: as §1

pigweed = assay: Test B pre-/postemergence herbicide test; format: in vivo, Amaranthus retroflexus
Outline: as §2

velvetleaf = assay: Test B pre-/postemergence herbicide test; format: in vivo, Abutilon theophrasti
Outline: as §2

blackgrass = assay: Test B postemergence herbicide test; format: in vivo, Alopecurus myosuroides
Outline: (§3)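 Read-out: visual comparison with controls, scored 0 to 100, where 100 means complete control and 0 no effect. Formulated chemicals were applied postemergence to plants 2–18 cm tall (1- to 4-leaf), or to flooded-paddy plants at the 2-leaf stage, then held 13 to 15 days under glass.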

wheat = assay: Test B postemergence herbicide test; format: in vivo, Triticum aestivum; design: key to Wheat plant response rating: 0 = no effect, 100 = complete control
Outline: (§4)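 Postemergence plants were sprayed with formulated test chemicals at 2 to 18 cm height (1- to 4-leaf stage); paddy species were grown to the 2-leaf stage. After 13 to 15 days in a greenhouse, injury was rated visually against untreated controls on a 0–100 scale (0 = no effect, 100 = complete control).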

wild oat = assay: Test B postemergence herbicide test; format: in vivo, Avena fatua
Outline: as §4

rice = assay: Test B flooded paddy test; format: in vivo, Oryza sativa; conditions: 1000 g ai/ha, scale 0 to 100 (0 no effect, 100 complete control)
Outline: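 Formulated test chemicals went onto postemergence plants measuring 2 to 18 cm, at one to four leaves. For the paddy assay, species had reached two leaves. Scoring took place 13–15 days later by eye, relative to untreated plants, using 0 for no effect up to 100 for full control.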

[1] = test system: small flower umbrella sedge; assay: Test B flooded paddy test; format: in vivo, Cyperus difformis; conditions: 1000 g ai/ha, scale 0 to 100 (0 no effect, 100 complete control)
Outline: as §3

ducksalad = assay: Test B flooded paddy test; format: in vivo, Heteranthera limosa; conditions: 1000 g ai/ha, scale 0 to 100 (0 no effect, 100 complete control)
Outline: as §3

[2] = 125 g ai/ha, 0 is no effect, 100 is complete control, preemergence
[3] = Postemergence, 500 g ai/ha, scale 0 (no effect) to 100 (complete control)
[4] = postemergence, 125 g ai/ha, scale 0 to 100
[5] = 125 g ai/ha, 0 is no effect, 100 is complete control
[6] = 125 g ai/ha, visual rating, scale 0 (no effect) to 100 (complete control), postemergence
[7] = 500 g ai/ha, visual rating, 0 = no effect, 100 = complete control, preemergence
[8] = postemergence, 500 g ai/ha, scale 0 to 100, 0 is no effect, 100 is complete control
[9] = 500 g ai/ha, visual rating, 0 = no effect, 100 = complete control
[10] = 125 g ai/ha, 0 = no effect, 100 = complete control, preemergence
[11] = postemergence, 125 g ai/ha, visual rating, scale 0 (no effect) to 100 (complete control)
[12] = 500 g ai/ha, visual rating 0-100, 0 no effect, 100 complete control, preemergence
[13] = postemergence, 500 g ai/ha, visual rating, scale 0 (no effect) to 100 (complete control)
[14] = preemergence, 125 g ai/ha, 0 to 100 scale, 0 is no effect, 100 is complete control

CCc1nn(C(C)C)nc1C(=O)Nc1cccc(C(=S)N(C)C)c1 [Compound 409]
Plant response rating (0 to 100 scale), Barnyardgrass (barnyardgrass; [2]): 90
Barnyardgrass plant response rating (barnyardgrass; Postemergence, 125 g ai/ha, scale 0 (no effect) to 100 (complete control)): 0
Barnyardgrass plant response rating (barnyardgrass; [3]): 0
Plant response rating (0 to 100 scale), Surinam Grass (Surinam grass; [2]): 90
Surinam Grass plant response rating (Surinam grass; [3]): 30
Surinam Grass plant response rating (Surinam grass; [4]): 10
Plant response rating (0 to 100 scale), Cocklebur (cocklebur; [2]): 10
Cocklebur plant response rating (cocklebur; [3]): 10
Cocklebur plant response rating (cocklebur; [4]): 0
Plant response rating (0 to 100 scale), Corn (corn; [5]): 50
Corn plant response rating (corn; [3]): 10
Corn plant response rating (corn; [4]): 0
Plant response rating (0 to 100 scale), Crabgrass, Large (large crabgrass; [2]): 90
Crabgrass, Large plant response rating (large crabgrass; [3]): 10
Crabgrass, Large plant response rating (large crabgrass; [4]): 0
Plant response rating (0 to 100 scale), Foxtail, Giant (giant foxtail; [2]): 70
Foxtail, Giant plant response rating (giant foxtail; [3]): 20
Foxtail, Giant plant response rating (giant foxtail; [4]): 0
Plant response rating (0 to 100 scale), Morningglory (morningglory; [2]): 60
Morningglory plant response rating (morningglory; [3]): 70
Morningglory plant response rating (morningglory; [4]): 0
Plant response rating (0 to 100 scale), Pigweed (pigweed; [2]): 90
Pigweed plant response rating (pigweed; [3]): 70
Pigweed plant response rating (pigweed; [4]): 30
Plant response rating (0 to 100 scale), Velvetleaf (velvetleaf; [2]): 30
Velvetleaf plant response rating (velvetleaf; [3]): 0
Velvetleaf plant response rating (velvetleaf; [4]): 0
Blackgrass plant response rating (blackgrass; [3]): 40
Blackgrass plant response rating (blackgrass; [4]): 10
Wheat plant response rating (wheat; 500 g ai/ha, scale 0 to 100, 0 no effect, 100 complete control, preemergence): 100
Wheat plant response rating (wheat; [3]): 10
Wheat plant response rating (wheat; [4]): 0
Oat, Wild plant response rating (wild oat; [3]): 10
Oat, Wild plant response rating (wild oat; [4]): 0
Rice plant response rating (rice): 70
Sedge, Umbrella plant response rating [1]: 90
Ducksalad plant response rating (ducksalad): 70

CCn1nc(C(C)(C)C)cc1C(=O)Nc1cc(OC(F)(F)F)ccc1F [Compound 338]
Plant response rating (0 to 100 scale), Barnyardgrass (barnyardgrass; [2]): 20
Barnyardgrass plant response rating (barnyardgrass; [6]): 20
Plant response rating, Barnyardgrass (barnyardgrass; [7]): 80
Barnyardgrass plant response rating (barnyardgrass; [8]): 40
Plant response rating (0 to 100 scale), Surinam Grass (Surinam grass; [2]): 20
Surinam Grass plant response rating (Surinam grass; [6]): 20
Plant response rating, Surinam Grass (Surinam grass; [7]): 60
Surinam Grass plant response rating (Surinam grass; [8]): 40
Plant response rating (0 to 100 scale), Cocklebur (cocklebur; [2]): 0
Cocklebur plant response rating (cocklebur; [6]): 10
Plant response rating, Cocklebur (cocklebur; [7]): 0
Cocklebur plant response rating (cocklebur; [8]): 10
Plant response rating (0 to 100 scale), Corn (corn; [5]): 10
Corn plant response rating (corn; [6]): 10
Plant response rating, Corn (corn; [9]): 10
Corn plant response rating (corn; [8]): 20
Plant response rating (0 to 100 scale), Crabgrass, Large (large crabgrass; [2]): 80
Crabgrass, Large plant response rating (large crabgrass; [6]): 20
Plant response rating, Crabgrass, Large (large crabgrass; [7]): 100
Crabgrass, Large plant response rating (large crabgrass; [8]): 60
Plant response rating (0 to 100 scale), Foxtail, Giant (giant foxtail; [2]): 30
Foxtail, Giant plant response rating (giant foxtail; [6]): 20
Plant response rating, Foxtail, Giant (giant foxtail; [7]): 100
Foxtail, Giant plant response rating (giant foxtail; [8]): 30
Plant response rating (0 to 100 scale), Morningglory (morningglory; [2]): 0
Morningglory plant response rating (morningglory; [6]): 60
Plant response rating, Morningglory (morningglory; [7]): 10
Morningglory plant response rating (morningglory; [8]): 100
Plant response rating (0 to 100 scale), Pigweed (pigweed; [2]): 70
Pigweed plant response rating (pigweed; [6]): 60
Plant response rating, Pigweed (pigweed; [7]): 100
Pigweed plant response rating (pigweed; [8]): 80
Velvetleaf plant response rating (velvetleaf; [6]): 20
Velvetleaf plant response rating (velvetleaf; [8]): 50
Blackgrass plant response rating (blackgrass; [6]): 20
Blackgrass plant response rating (blackgrass; [8]): 40
Wheat plant response rating (wheat; [6]): 0
Wheat plant response rating (wheat; [8]): 10
Oat, Wild plant response rating (wild oat; [6]): 0
Oat, Wild plant response rating (wild oat; [8]): 40
Rice plant response rating (rice): 30
Sedge, Umbrella plant response rating [1]: 80
Ducksalad plant response rating (ducksalad): 60

C#CCNC(=O)c1cc(NC(=O)c2cc(C(C)(C)C)nn2CC)ccn1 [Compound 283]
Barnyardgrass plant response rating (0 to 100 scale) (barnyardgrass; [10]): 0
Plant response rating, Barnyardgrass (barnyardgrass; [7]): 10
Barnyardgrass plant response rating (barnyardgrass; [11]): 0
Barnyardgrass plant response rating (barnyardgrass; [8]): 0
Surinam Grass plant response rating (0 to 100 scale) (Surinam grass; [10]): 0
Plant response rating, Surinam Grass (Surinam grass; [7]): 0
Surinam Grass plant response rating (Surinam grass; [11]): 0
Surinam Grass plant response rating (Surinam grass; [8]): 10
Cocklebur plant response rating (0 to 100 scale) (cocklebur; [10]): 0
Plant response rating, Cocklebur (cocklebur; [7]): 0
Cocklebur plant response rating (cocklebur; [11]): 0
Cocklebur plant response rating (cocklebur; [8]): 0
Plant response rating, Corn (corn; [9]): 0
Corn plant response rating (corn; [11]): 0
Corn plant response rating (corn; [8]): 10
Crabgrass, Large plant response rating (0 to 100 scale) (large crabgrass; [10]): 0
Plant response rating, Crabgrass, Large (large crabgrass; [7]): 50
Crabgrass, Large plant response rating (large crabgrass; [11]): 0
Crabgrass, Large plant response rating (large crabgrass; [8]): 10
Foxtail, Giant plant response rating (0 to 100 scale) (giant foxtail; [10]): 0
Plant response rating, Foxtail, Giant (giant foxtail; [7]): 10
Foxtail, Giant plant response rating (giant foxtail; [11]): 0
Foxtail, Giant plant response rating (giant foxtail; [8]): 0
Morningglory plant response rating (0 to 100 scale) (morningglory; [10]): 0
Plant response rating, Morningglory (morningglory; [7]): 0
Morningglory plant response rating (morningglory; [11]): 0
Morningglory plant response rating (morningglory; [8]): 30
Pigweed plant response rating (0 to 100 scale) (pigweed; [10]): 0
Plant response rating, Pigweed (pigweed; [7]): 100
Pigweed plant response rating (pigweed; [11]): 0
Pigweed plant response rating (pigweed; [8]): 20
Velvetleaf plant response rating (0 to 100 scale) (velvetleaf; [10]): 0
Plant response rating, Velvetleaf (velvetleaf; [7]): 0
Velvetleaf plant response rating (velvetleaf; [11]): 0
Velvetleaf plant response rating (velvetleaf; [8]): 0
Blackgrass plant response rating (blackgrass; [11]): 20
Blackgrass plant response rating (blackgrass; [8]): 40
Wheat plant response rating (wheat; [11]): 20
Wheat plant response rating (wheat; [8]): 20
Oat, Wild plant response rating (wild oat; [11]): 0
Oat, Wild plant response rating (wild oat; [8]): 10
Rice plant response rating (rice): 10
Sedge, Umbrella plant response rating [1]: 80
Ducksalad plant response rating (ducksalad): 70

CCN(CC)C(=O)c1ccnc(NC(=O)c2cc(C(C)(C)C)nn2CC)c1 [Compound 153]
Plant response rating, Barnyardgrass (barnyardgrass; [12]): 90
Barnyardgrass plant response rating (barnyardgrass; [11]): 30
Barnyardgrass plant response rating (barnyardgrass; [13]): 30
Plant response rating, Barnyardgrass (barnyardgrass; [14]): 60
Plant response rating, Surinam Grass (Surinam grass; [12]): 70
Surinam Grass plant response rating (Surinam grass; [11]): 30
Surinam Grass plant response rating (Surinam grass; [13]): 30
Plant response rating, Surinam Grass (Surinam grass; [14]): 10
Plant response rating, Cocklebur (cocklebur; [12]): 0
Cocklebur plant response rating (cocklebur; [11]): 50
Cocklebur plant response rating (cocklebur; [13]): 100
Plant response rating, Cocklebur (cocklebur; [14]): 0
Plant response rating, Corn (corn; 500 g ai/ha, visual rating 0-100, 0 no effect, 100 complete control): 20
Corn plant response rating (corn; [11]): 10
Corn plant response rating (corn; [13]): 20
Plant response rating, Corn (corn; 125 g ai/ha, 0 to 100 scale, 0 is no effect, 100 is complete control): 0
Plant response rating, Crabgrass, Large (large crabgrass; [12]): 80
Crabgrass, Large plant response rating (large crabgrass; [11]): 10
Crabgrass, Large plant response rating (large crabgrass; [13]): 20
Plant response rating, Crabgrass, Large (large crabgrass; [14]): 50
Plant response rating, Foxtail, Giant (giant foxtail; [12]): 50
Foxtail, Giant plant response rating (giant foxtail; [11]): 10
Foxtail, Giant plant response rating (giant foxtail; [13]): 20
Plant response rating, Foxtail, Giant (giant foxtail; [14]): 0
Plant response rating, Morningglory (morningglory; [12]): 10
Morningglory plant response rating (morningglory; [11]): 10
Morningglory plant response rating (morningglory; [13]): 70
Plant response rating, Morningglory (morningglory; [14]): 0
Plant response rating, Pigweed (pigweed; [12]): 100
Pigweed plant response rating (pigweed; [11]): 20
Pigweed plant response rating (pigweed; [13]): 70
Plant response rating, Pigweed (pigweed; [14]): 100
Plant response rating, Velvetleaf (velvetleaf; [12]): 100
Velvetleaf plant response rating (velvetleaf; [11]): 50
Velvetleaf plant response rating (velvetleaf; [13]): 60
Plant response rating, Velvetleaf (velvetleaf; [14]): 40
Blackgrass plant response rating (blackgrass; [11]): 10
Blackgrass plant response rating (blackgrass; [13]): 10
Wheat plant response rating (wheat; [13]): 10
Oat, Wild plant response rating (wild oat; [11]): 20
Oat, Wild plant response rating (wild oat; [13]): 50
Rice plant response rating (rice; visual rating, 13 to 15 days): 60
Sedge, Umbrella plant response rating ([1]; visual rating, 13 to 15 days): 70
Ducksalad plant response rating (ducksalad; visual rating, 13 to 15 days): 80
